Earlier results, collected in patent US20240408101A1, “COMPOSITION AND METHODS OF TREATMENT USING […] - ENHANCED SUPPLEMENTATION” (Xygenyx Inc., priority 2023, published 2024).
Where a SMILES comes first, the peptide text is derived from it.

Tests used:
[1] = tested on: skin; conditions: topical application, concentrations 0.5-5%
[2] = tested on: skin; conditions: topical formulations, within four weeks of treatment
[3] = tested on: wide dynamic range neurons in the ventroposterolateral nucleus of the thalamus
[4] = dietary supplementation, doses up to 400 IU/day, controlled trials
[5] = dietary supplementation, doses up to 400 IU/day
[6] = in combination with 10-20 mg β-carotene and 400-500 mg vitamin C, doses around 400-500 IU
[7] = compared to α-tocopherol taken as 1.0
[8] = tested on: F2-isoprostane; conditions: large doses of 1600-3200 IU/day
[9] = in vivo
[10] = in vivo; remark: listed apart in the source
[11] = mice
[12] = tested on: skin; conditions: as penetration enhancer for transdermal drugs
[13] = even when dietary intake occurs in equal portions

C=CCCCCCCCCC(=O)N[C@@H](Cc1ccccc1)C(=O)O [UP, Undecylenoyl phenylalanine]
time to skin lightening effects [1]: ≥ 7 days

CC[C@H](C)[C@H](NC(=O)[C@H](CC(=O)O)NC(=O)[C@@H](N)CCCCN)C(=O)N[C@@H](CCCNC(N)=O)C(N)=O [tripeptide-10 citrulline, Tripeptide-10 citrulline] (HELM PEPTIDE1{K.D.I.[Cit].[am]}$$$$V2.0)
improvement of suppleness [2]: ≤ 54%

CCCCCc1cc(O)c2c(c1)OC(C)(C)C1CCC(C)=CC21 (centres unmarked) [THC, Δ-9-tetrahydrocannabinol]
analgesic power relative to morphine [3]: ten times more powerful than morphine

Cc1c(C)c2c(c(C)c1O)CC[C@@](C)(CCC[C@H](C)CCC[C@H](C)CCCC(C)C)O2 [α-tocopherol]
reduction of risk of developing neurodegenerative diseases [4]: ≤ 24%
reduction of risk of coronary disease [5]: up to 34%
reduction in the development of age-related cataracts [6]: 23%
relative biological activity [7]: 1.0
blood plasma concentration of F2-isoprostane [8]: significantly lower

Cc1cc(O)c(C)c2c1O[C@](C)(CCC[C@H](C)CCC[C@H](C)CCCC(C)C)CC2 [β-tocopherol]
relative biological activity [7]: 0.5

Cc1cc(O)cc2c1O[C@](C)(CCC[C@H](C)CCC[C@H](C)CCCC(C)C)CC2 [δ-tocopherol]
relative biological activity [7]: 0.03

CCNC(=O)CC[C@H](N)C(=O)O [Theanine]
dose considered safe and well-tolerated [9]: up to 400 mg per day

HGH: hormone comprising a peptide chain synthesized in the pituitary gland
biological half-life [10]: 10-20 minutes

CC(CN)C(=O)O [L-BAIBA, L-beta-aminoisobutyric acid]
tolerated dose [11]: 10-100 mg/kg of bodyweight

CC(C)[C@@H]1CC[C@@H](C)C[C@H]1O [Menthol]
increase of transdermal drug uptake, factor [12]: ≥ 10

Cc1c(O)cc2c(c1C)O[C@](C)(CCC[C@H](C)CCC[C@H](C)CCCC(C)C)CC2 [γ-tocopherol]
relative biological activity [7]: 0.1
concentration in vivo relative to α-tocopherol [13]: roughly 10%

CC12CCC(CC1)C(C)(C)O2 [eucalyptol, 1,8-epoxy-p-menthane]
increase of transdermal drug uptake, factor [12]: more than 10
